Test results as given in patent publication US20050282743A1, “Molecular interactions in cells” (Arbor Vita Corporation, priority 2001, published 2005).
Ends that are not written are not given here. Peptide text beside a SMILES is read from it. * marks the point of attachment. Biotin = O=C1N[C@H]2[C@H](CS[C@H]2CCCCC(=O)*)N1

Tests used:
Experiment in all cases: G' assay (10 uM PL peptide), results of TABLE 7 and TABLE 12
Format in all cases: binding
[1] = molecular target: T1, PDZ protein (GST-PDZ fusion) (Homo sapiens, UniProt O15018)
T1 construct: made in house; host or cells: E. coli (DH5alpha, BL21 or JM109)
Outline: (§1)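 Same steps as the G-zero format, apart from a peptide concentration of 10 uM in place of 20 uM in step 2. Amino-terminally biotinylated PL peptides bind GST-PDZ fusions, and retained peptide is quantified by 450 nm absorbance.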

[2] = molecular target: T2, PDZ protein (GST-PDZ fusion) (Homo sapiens, UniProt Q86UL8)
T2 construct: made in house; host or cells: E. coli (DH5alpha, BL21 or JM109)
Outline: as §1

[3] = molecular target: T3, PDZ protein (GST-PDZ fusion) (Homo sapiens, UniProt Q8NI35); conditions: PDZ INADL
T3 construct: made in house; host or cells: E. coli (DH5alpha, BL21 or JM109)
Outline: as §1

[4] = molecular target: T4, PDZ protein (GST-PDZ fusion) (Homo sapiens, UniProt O14907); conditions: PDZ TIP1, PDZ Domain 1
T4 construct: made in house; host or cells: E. coli (DH5alpha, BL21 or JM109)
T4 sequence (O14907 1-124): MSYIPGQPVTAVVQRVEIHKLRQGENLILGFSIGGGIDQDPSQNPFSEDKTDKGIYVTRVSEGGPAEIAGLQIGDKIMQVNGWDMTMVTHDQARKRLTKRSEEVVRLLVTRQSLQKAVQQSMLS
Outline: as §1

[5] = molecular target: T5, PDZ protein (GST-PDZ fusion) (Homo sapiens, UniProt P78352); conditions: PDZ PSD95, PDZ Domain 1, 2, 3
T5 construct: made in house; host or cells: E. coli (DH5alpha, BL21 or JM109)
Outline: as §1

[6] = molecular target: T6, PDZ protein (GST-PDZ fusion) (Homo sapiens, UniProt P57105); conditions: PDZ Outer Membrane, PDZ Domain 1
T6 construct: made in house; host or cells: E. coli (DH5alpha, BL21 or JM109)
T6 sequence (P57105 1-145): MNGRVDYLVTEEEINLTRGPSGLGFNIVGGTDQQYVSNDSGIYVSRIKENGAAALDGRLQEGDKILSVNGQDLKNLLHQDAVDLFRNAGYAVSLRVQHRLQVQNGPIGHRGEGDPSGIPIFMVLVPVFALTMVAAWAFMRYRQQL
Outline: as §1

[7] = molecular target: T7, PDZ protein (GST-PDZ fusion) (Homo sapiens, UniProt Q14160); conditions: PDZ KIAA0147, PDZ Domain 1
T7 construct: made in house; host or cells: E. coli (DH5alpha, BL21 or JM109)
Outline: as §1

[8] = molecular target: T8, PDZ protein (GST-PDZ fusion) (Homo sapiens, UniProt Q15700); conditions: PDZ DLG2, PDZ Domain 2
T8 construct: made in house; host or cells: E. coli (DH5alpha, BL21 or JM109)
Outline: as §1

[9] = PDZ Atrophin-1 Inter. Prot., PDZ Domain 5
[10] = PDZ atrophin-1 interacting Protein, PDZ Domain 1

T1 sequence (O15018 whole entry, the tested form may be a part): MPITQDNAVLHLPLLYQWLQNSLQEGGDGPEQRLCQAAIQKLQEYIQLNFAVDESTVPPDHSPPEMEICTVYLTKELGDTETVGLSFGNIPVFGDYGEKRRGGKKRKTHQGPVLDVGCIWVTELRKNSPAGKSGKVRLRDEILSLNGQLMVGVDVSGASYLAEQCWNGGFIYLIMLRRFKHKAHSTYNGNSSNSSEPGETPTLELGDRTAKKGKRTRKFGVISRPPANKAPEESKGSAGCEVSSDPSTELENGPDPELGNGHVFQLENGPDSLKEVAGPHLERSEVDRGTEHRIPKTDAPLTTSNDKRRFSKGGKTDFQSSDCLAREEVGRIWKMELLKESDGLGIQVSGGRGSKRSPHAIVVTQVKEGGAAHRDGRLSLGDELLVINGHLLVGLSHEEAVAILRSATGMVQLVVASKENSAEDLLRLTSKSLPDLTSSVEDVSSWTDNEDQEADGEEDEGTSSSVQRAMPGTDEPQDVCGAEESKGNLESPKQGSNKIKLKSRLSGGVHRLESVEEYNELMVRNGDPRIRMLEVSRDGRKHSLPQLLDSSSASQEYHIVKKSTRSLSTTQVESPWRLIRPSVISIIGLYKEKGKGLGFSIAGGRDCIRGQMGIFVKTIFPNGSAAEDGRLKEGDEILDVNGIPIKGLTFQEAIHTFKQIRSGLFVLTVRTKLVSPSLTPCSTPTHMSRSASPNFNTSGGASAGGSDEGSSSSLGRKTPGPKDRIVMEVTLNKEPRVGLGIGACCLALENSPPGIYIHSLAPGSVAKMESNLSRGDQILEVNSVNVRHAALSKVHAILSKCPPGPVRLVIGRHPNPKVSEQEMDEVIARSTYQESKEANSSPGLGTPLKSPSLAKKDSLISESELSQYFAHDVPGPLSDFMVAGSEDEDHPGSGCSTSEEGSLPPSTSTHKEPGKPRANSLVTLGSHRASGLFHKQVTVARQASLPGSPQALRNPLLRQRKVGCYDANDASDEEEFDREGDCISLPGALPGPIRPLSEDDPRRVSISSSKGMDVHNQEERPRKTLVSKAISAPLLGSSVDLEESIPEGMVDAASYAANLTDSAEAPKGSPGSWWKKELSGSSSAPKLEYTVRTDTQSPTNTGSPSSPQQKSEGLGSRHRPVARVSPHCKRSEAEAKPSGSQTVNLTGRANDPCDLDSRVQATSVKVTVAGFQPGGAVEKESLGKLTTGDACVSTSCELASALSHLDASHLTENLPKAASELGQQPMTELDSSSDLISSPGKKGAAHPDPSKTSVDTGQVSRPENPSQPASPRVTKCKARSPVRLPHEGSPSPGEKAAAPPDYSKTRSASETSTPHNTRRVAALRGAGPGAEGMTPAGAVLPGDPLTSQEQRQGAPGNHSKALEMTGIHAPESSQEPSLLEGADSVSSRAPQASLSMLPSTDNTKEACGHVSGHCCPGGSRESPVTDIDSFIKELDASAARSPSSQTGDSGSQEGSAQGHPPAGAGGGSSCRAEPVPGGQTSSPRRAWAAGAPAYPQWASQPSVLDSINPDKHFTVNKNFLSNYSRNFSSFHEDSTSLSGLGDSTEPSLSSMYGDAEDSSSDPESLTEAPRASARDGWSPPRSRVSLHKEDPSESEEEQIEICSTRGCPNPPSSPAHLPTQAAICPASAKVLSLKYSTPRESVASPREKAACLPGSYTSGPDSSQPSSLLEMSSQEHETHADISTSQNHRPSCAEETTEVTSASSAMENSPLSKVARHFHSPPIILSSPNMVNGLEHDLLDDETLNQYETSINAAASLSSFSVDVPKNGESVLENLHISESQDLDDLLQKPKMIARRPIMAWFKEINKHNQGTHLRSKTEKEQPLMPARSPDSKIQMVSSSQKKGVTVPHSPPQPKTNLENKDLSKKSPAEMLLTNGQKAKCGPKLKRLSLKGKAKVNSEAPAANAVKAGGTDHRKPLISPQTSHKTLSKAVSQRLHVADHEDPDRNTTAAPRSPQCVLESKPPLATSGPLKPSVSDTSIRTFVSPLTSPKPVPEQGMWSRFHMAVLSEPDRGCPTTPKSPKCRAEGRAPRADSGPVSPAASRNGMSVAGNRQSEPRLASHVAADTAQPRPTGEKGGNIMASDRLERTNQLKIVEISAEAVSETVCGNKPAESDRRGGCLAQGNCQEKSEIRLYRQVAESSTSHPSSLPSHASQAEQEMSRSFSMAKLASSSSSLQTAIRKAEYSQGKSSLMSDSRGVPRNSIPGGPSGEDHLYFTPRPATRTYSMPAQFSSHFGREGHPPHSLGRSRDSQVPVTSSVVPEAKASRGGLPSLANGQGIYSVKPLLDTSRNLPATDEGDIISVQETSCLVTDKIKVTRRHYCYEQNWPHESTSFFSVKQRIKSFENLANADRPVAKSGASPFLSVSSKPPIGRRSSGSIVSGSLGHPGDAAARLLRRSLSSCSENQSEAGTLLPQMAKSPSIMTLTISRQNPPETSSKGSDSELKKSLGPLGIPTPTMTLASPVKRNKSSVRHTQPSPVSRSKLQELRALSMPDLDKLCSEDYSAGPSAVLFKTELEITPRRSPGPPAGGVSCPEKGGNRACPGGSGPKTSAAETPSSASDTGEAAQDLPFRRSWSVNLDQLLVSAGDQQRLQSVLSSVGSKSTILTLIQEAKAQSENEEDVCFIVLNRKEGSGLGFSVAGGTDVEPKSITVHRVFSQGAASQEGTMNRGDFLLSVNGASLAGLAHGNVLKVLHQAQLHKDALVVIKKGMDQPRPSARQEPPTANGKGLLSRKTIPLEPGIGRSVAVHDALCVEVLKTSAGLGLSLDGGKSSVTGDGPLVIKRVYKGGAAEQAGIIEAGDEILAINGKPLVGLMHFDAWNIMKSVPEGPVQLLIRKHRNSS
T5 sequence (P78352 whole entry, the tested form may be a part): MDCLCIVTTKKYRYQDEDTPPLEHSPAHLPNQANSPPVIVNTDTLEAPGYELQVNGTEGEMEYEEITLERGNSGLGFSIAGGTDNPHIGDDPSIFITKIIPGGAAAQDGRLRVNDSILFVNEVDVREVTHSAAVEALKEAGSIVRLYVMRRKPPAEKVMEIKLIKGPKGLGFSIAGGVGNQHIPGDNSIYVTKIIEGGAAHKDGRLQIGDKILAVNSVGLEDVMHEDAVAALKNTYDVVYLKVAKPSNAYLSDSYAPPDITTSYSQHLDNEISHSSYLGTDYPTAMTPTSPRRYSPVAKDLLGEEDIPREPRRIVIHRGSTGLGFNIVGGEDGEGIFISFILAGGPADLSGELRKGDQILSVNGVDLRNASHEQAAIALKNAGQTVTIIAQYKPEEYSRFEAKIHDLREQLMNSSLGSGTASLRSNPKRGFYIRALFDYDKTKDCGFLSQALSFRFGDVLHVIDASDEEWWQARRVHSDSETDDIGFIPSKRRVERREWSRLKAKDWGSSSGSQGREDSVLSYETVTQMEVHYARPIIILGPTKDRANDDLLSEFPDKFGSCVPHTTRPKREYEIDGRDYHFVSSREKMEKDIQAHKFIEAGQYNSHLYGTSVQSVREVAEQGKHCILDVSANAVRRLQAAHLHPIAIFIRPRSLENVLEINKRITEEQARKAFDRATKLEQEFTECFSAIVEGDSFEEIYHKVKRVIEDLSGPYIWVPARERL
T2 sequence (Q86UL8 whole entry, the tested form may be a part): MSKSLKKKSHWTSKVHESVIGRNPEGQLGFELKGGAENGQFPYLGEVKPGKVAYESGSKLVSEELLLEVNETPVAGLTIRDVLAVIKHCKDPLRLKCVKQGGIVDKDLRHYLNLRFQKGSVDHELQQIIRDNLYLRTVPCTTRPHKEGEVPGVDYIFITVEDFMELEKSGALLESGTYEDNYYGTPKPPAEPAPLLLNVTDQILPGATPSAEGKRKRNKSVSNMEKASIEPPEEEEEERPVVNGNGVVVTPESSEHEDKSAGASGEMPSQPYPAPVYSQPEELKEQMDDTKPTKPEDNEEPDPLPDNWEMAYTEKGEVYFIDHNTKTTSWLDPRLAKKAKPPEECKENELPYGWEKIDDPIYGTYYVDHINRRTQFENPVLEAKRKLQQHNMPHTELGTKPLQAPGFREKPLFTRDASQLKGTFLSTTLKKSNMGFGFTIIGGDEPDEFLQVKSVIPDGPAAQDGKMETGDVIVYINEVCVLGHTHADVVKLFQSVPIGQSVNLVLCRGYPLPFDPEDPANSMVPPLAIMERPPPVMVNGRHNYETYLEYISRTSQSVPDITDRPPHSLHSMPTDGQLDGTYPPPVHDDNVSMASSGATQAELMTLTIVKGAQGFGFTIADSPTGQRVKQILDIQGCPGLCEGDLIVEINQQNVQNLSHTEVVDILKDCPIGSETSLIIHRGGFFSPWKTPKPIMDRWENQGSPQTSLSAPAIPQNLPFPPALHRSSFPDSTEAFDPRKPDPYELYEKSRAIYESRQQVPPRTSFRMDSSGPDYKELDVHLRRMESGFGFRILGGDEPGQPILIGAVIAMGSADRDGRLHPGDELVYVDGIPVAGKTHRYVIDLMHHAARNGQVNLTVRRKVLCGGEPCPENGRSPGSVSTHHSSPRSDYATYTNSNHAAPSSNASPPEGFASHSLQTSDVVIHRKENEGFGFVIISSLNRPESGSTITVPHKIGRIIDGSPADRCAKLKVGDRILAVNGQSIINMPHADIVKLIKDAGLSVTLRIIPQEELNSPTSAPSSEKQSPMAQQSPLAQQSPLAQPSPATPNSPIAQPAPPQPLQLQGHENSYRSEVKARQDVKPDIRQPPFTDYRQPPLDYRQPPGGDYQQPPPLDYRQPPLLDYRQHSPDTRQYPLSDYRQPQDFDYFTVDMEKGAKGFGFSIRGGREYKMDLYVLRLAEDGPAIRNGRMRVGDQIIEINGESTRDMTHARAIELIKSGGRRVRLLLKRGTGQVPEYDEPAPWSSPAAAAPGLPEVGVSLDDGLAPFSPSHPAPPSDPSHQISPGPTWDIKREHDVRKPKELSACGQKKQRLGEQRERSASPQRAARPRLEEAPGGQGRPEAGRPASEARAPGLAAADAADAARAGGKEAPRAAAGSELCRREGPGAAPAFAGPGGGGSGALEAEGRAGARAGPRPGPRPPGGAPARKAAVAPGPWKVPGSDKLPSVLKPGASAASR

In the case of `CC[C@H](C)[C@H](NC(=O)[C@H](Cc1ccc(O)cc1)NC(=O)[C@H](CC(C)C)NC(=O)[C@H](CCC(N)=O)NC(=O)[C@H](Cc1c[nH]cn1)NC(=O)[C@H](CO)NC(=O)[C@H](C)NC(=O)[C@H](CC(C)C)NC(=O)[C@@H](NC(=O)[C@H](CC(=O)O)NC(=O)[C@H](CCSC)NC(=O)[C@H](Cc1ccccc1)NC(=O)[C@@H]1CCCN1C(=O)[C@H](CCCNC(=N)N)NC(=O)[C@@H](NC(=O)[C@H](CC(C)C)NC(=O)[C@H](CC(N)=O)NC(=O)[C@H](CC(=O)O)NC(=O)[C@@H](NC(=O)[C@H](CO)NC(=O)CCCC[C@@H]1SC[C@@H]2NC(=O)N[C@@H]21)[C@@H](C)O)C(C)C)[C@@H](C)O)C(=O)O` [presenilin-2] (Biotin-STDNLVRPFMDTLASHQLYI-OH; C-terminus assumed), the Classification ([1]; PDZ AIPC, PDZ Domain 1) was 1 (A450 nm 0-1), the Classification ([1]; PDZ AIPC, PDZ Domain 4) was 1 (A450 nm 0-1) and the Classification ([1]; PDZ KIAA0300, PDZ Domain 1) was 1 (A450 nm 0-1). For the same compound, the Classification ([1]; PDZ KIAA0300, PDZ Domain 2) was 1 (A450 nm 0-1), the Classification [2, 9] was 1 (A450 nm 0-1) and the Classification ([3]; PDZ Domain 3) was 1 (A450 nm 0-1).

With `CC[C@H](C)[C@H](NC(=O)[C@H](Cc1c[nH]cn1)NC(=O)[C@H](C)NC(=O)[C@H](C)NC(=O)[C@H](CO)NC(=O)[C@@H]1CCCN1C(=O)[C@H](CCCNC(=N)N)NC(=O)[C@H](CC(=O)O)NC(=O)[C@H](CCCCN)NC(=O)[C@@H]1CCCN1C(=O)[C@H](CC(=O)O)NC(=O)[C@H](CCC(=O)O)NC(=O)CCCC[C@@H]1SC[C@@H]2NC(=O)N[C@@H]21)C(=O)N[C@H](C(=O)N[C@@H](CCC(=O)O)C(=O)N[C@@H](C)C(=O)N[C@@H](CC(C)C)C(=O)N[C@@H](CCC(=O)O)C(=O)N[C@H](C(=O)N[C@@H](CC(=O)O)C(=O)N[C@H](C(=O)O)C(C)C)[C@@H](C)O)C(C)C` [PDZ-binding kinase (PBK)] (Biotin-EDPKDRPSAAHIVEALETDV-OH; C-terminus assumed) the Classification [4] was 1 (A450 nm 0-1), the Classification [5] was 1 (A450 nm 0-1) and the Classification [2, 9] was 1 (A450 nm 0-1).

In the case of “RNIEEVYVGGKQVVPFSSSV (Biotin-RNIEEVYVGGKQVVPFSSSV) [Nedasin (s-form)]”, the Classification [4] was 5 (A450 nm of 4 more than 2× repeated), the Classification [5] was 3 (A450 nm 2-3) and the Classification ([3]; PDZ Domain 8) was 1 (A450 nm 0-1).

In the case of `CC[C@H](C)[C@H](NC(=O)[C@H](CC(=O)O)NC(=O)[C@H](CCC(=O)O)NC(=O)[C@H](CCCNC(=N)N)NC(=O)[C@@H](NC(=O)CCCC[C@@H]1SC[C@@H]2NC(=O)N[C@@H]21)[C@@H](C)O)C(=O)N[C@@H](Cc1ccc(O)cc1)C(=O)N[C@H](C(=O)N[C@@H](CC(N)=O)C(=O)N[C@@H](Cc1ccc(O)cc1)C(=O)N1CCC[C@H]1C(=O)N[C@H](C(=O)N[C@@H](Cc1ccccc1)C(=O)N[C@@H](CO)C(=O)N[C@@H](CCCNC(=N)N)C(=O)N[C@@H](CCCNC(=N)N)C(=O)N1CCC[C@H]1C(=O)N[C@@H](CCCCN)C(=O)N[C@H](C(=O)N[C@@H](CCCNC(=N)N)C(=O)N[C@H](C(=O)O)C(C)C)[C@@H](C)O)[C@@H](C)O)C(C)C` [DNAM-1] (Biotin-TREDIYVNYPTFSRRPKTRV-OH; C-terminus assumed), the Classification [4] was 1 (A450 nm 0-1), the Classification [6] was 1 (A450 nm 0-1) and the Classification [2, 10] was 3 (A450 nm 2-3). For the same compound, the Classification ([3]; PDZ Domain 8) was 5 (A450 nm of 4 more than 2× repeated).

With “GGGGGSGGGGGSGIESVKI [GLUR2 (glutamate receptor 2-modified)]” the Classification ([1]; PDZ AIPC, PDZ Domain 1) was 2 (A450 nm 1-2), the Classification [5] was 2 (A450 nm 1-2) and the Classification [7] was 1 (A450 nm 0-1). The Classification [8] was 1 (A450 nm 0-1).

CKR5_HUMAN (ERASSVYTRSTGEQEISVGL) was tested, and the Classification [4] was 1 (A450 nm 0-1).

`CC(C)C[C@H](NC(=O)CNC(=O)[C@@H](NC(=O)[C@H](CO)NC(=O)[C@H](CC(N)=O)NC(=O)[C@H](Cc1ccccc1)NC(=O)CNC(=O)[C@H](C)NC(=O)[C@H](C)NC(=O)[C@H](Cc1ccccc1)NC(=O)[C@@H](NC(=O)CCCC[C@@H]1SC[C@@H]2NC(=O)N[C@@H]21)[C@@H](C)O)[C@@H](C)O)C(=O)N1CCC[C@H]1C(=O)N[C@@H](Cc1c[nH]cn1)C(=O)N[C@@H](CO)C(=O)N[C@H](C(=O)N[C@H](C(=O)N[C@@H](CCCNC(=N)N)C(=O)N[C@H](C(=O)O)C(C)C)[C@@H](C)O)[C@@H](C)O` [Neuroligin] (Biotin-TFAAGFNSTGLPHSTTRV-OH; C-terminus assumed) was tested, and the Classification [4] was 1 (A450 nm 0-1), the Classification [5] was 2 (A450 nm 1-2) and the Classification [2, 10] was 2 (A450 nm 1-2). For the same compound, the Classification ([3]; PDZ Domain 8) was 1 (A450 nm 0-1).
